Patent US9394338B2, “Glutathione analogs and uses thereof” (REGENTS OF THE UNIVERSITY OF MINNESOTA, priority 2011, dated 2016)
Where two headings read alike, the source gives them in different places.

Legend:
SH-SY-5Y cells [1] = assay: H2O2 and MG-induced cellular oxidative stress (DCFH-DA); assay type: cell-based, human; details: for intracellular ROS after H2O2 exposure: H2O2 500 μM, co-incubation with 250 μM compound; for ROS generated by MG treatment: MG 1 mM, 180 min, 250 μM compound
Method: H2O2 and MG-Induced Cellular Oxidative Stress. SH-SY-5Y cells were cultured in 96-well black plates at the density of 10,000 cells/well and were allowed to reach confluence (˜48 h). The cells were then treated with a solution of 2,7-dichlorofluorescin diacetate (DCFH-DA, 20 μM) in RPMI 1640 medium without FBS for 45 min. Extracellular DCFH-DA was removed by washing twice with PBS. To induce oxidative stress, the cells were treated with hydrogen peroxide (500 μM) or methylglyoxal (1 mM) in RPMI media without FBS in presence and absence of GSH or Ψ-GSH (250 μM) for 90 min or 180 min at 37° C. in the dark. The cells were washed with PBS and then lysed by adding 250 μl of 90% DMSO/10% PBS for 10 min in the dark at room temperature with shaking. The fluorescence intensity in each well was measured in the fluorescence plate reader (BioTek SynergyHT, VT, USA) at an excitation of 485 nm and an emission of 538 nm and normalized to the protein content in each well as determined by the BCA assay. (Wang et al., Free Radic. Res. 2008, 42, 435-441)

SH-SY-5Y cells [2] = assay: cells; assay type: cell-based; details: for protection against Aβ toxicity: 10 μM, pretreatment 24 h; for protection against Aβ toxicity / length of cytoprotection against Aβ toxicity: 20 μM Aβ (1-42); for inhibition at 1000 µM: Homo sapiens, SH-SY5Y, SH-SY-5Y, compound 1 mM 24 h; for length of cytoprotection against Aβ toxicity: pretreatment of SH-SY-5Y cells
Method: (§1) Cytotoxicity Studies: Protection against β-amyloid 1-42 cytotoxicity in SH-SY-5Y cells was measured by standard MTT assays. SH-SY-5Y cells were seeded in 96-well plates at the density of 30,000 cells/well. After overnight incubation, the cells were exposed to GSH or Ψ-GSH at a concentration of 1 mM for 24 h at 37° C. After 24 h of incubation, the drug-containing medium was replaced with media containing 20 μM β-amyloid 1-42 peptide and the incubation was allowed to continue for additional 24 hours after the addition of the drugs. At the end of the incubation, 20 μL of MTT stock solution (5 mg/mL) was added to each well and incubated for 3 h at 37° C. The MTT reaction medium was discarded and the purple-blue MTT formazan crystals were dissolved by the addition of 100 μL of 0.1 N HCl in isopropanol. The optical density (OD), a reflection mitochondrial function of the viable cells, was read directly with a microplate reader (BioTek SynergyHT, VT, USA) at 580 nm and a reference wavelength of 680 nm. Concentration response graphs were generated for each drug using GraphPad Prism software (GraphPad Software, Inc., San Diego, Calif., USA). Results are expressed as mean percent inhibition of β-amyloid toxicity with the standard error of the mean. In another set of experiments, cells were preincubated with a glyoxalase I inhibitor, S-(p-bromobenzylglutathione) (1 mM) for 24 hours before addition of βamyloid1-42 peptide (20 μM).
as §1, with “Protection” for “Cytotoxicity Studies: Protection”, “against β-amyloid^1-42” for “against β-amyloid 1-42”, “cells/well. […]” for “cells/well. After overnight incubation, the cells were exposed to GSH or Ψ-GSH at a concentration of 1 mM for 24 h at 37° C.”, “μM β-amyloid^1-42” for “μM β-amyloid 1-42”, “20 μl,” for “20 μL”, “mean.” for “mean. In another set of experiments, cells were preincubated with a glyoxalase I inhibitor, S-(p-bromobenzylglutathione) (1 mM) for 24 hours before addition of βamyloid1-42 peptide (20 μM).”

APP/PS1 mice = assay: Morris water maze; assay type: in vivo; details: for escape latency, hidden platform: 500 mg/Kg i.p. 3×/week
Method: Efficacy Study Design. To determine the effect of intraperitoneal and oral Ψ-GSH treatment, the study was divided in four groups (10 mice/group). 1. APP/PS1 mice-vehicle control, 2. APP/PS1 mice-Ψ-GSH i.p. 500 mg/kg, 3. APP/PS1 mice-Ψ-GSH oral 500 mg/kg, 4. Non-transgenic wild type mice-vehicle control. All the animals in the above-said groups were treated with saline or Ψ-GSH three times a week for 12 weeks, starting at the age of three to four months. Eleven weeks after the start of the treatment, the animals were tested in the Morris water maze, and twelve weeks after the start of the treatment, the animals were sacrificed for histopathological analysis.
Behavior Study. Eleven weeks after the beginning of the treatment, the animals were tested for one week in an open field water maze. The maze consists of a white circular tank (120 cm diameter) of water (23±1° C.) rendered opaque with nontoxic crayola paint. The mice were placed in the water at the edge of the pool and allowed to swim in order to locate a hidden, but fixed escape platform, using extra-maze cues.
On Day 1, the mice were be placed in the pool and allowed to swim freely for 60 s. If an animal could not locate the hidden platform within that time, it was placed manually upon the platform and left there for 10 s. Each animal was tested in four trials per day. The inter-trial interval was 15 min. Each start position was used equally in a pseudorandom order, and the animals were always placed in the water facing the wall. The platform was placed in the middle of northeast quadrant of the pool (approximately 30 cm from the side of the pool). The mouse's task throughout the experiment was to find and climb onto the platform, escaping the water. Once the mouse learned the task (Day 4, Trial 16), a probe trial was conducted 24 hours after the last trial of acquisition on Day 4.
In the probe trial (i.e., Trial 17, day 5), the platform was removed from the pool and animals were allowed to swim for 60 s. Their ability to remember the location of the previously present escape platform was quantified in proportion to the residence time of the mouse in the quadrant previously containing the platform. Immediately following the probe trial, visible platform was reintroduced at a different location (i.e southeast quadrant) along with a visible flag. Mice were trained to locate this cued platform in 4 trials conducted in the aforementioned manner.

[3] = then 20 μM Aβ1-42 24 h, read-out: % Inhibition of Cell Growth with Aβ1-42
[4] = without Aβ1-42, read-out: % Inhibition of Cell Growth without Aβ1-42

SMILES	intracellular ROS after H2O2 exposure (SH-SY-5Y cells [1])	ROS generated by MG treatment (SH-SY-5Y cells [1])	protection against Aβ toxicity (SH-SY-5Y cells [2])	inhibition at 1000 µM (SH-SY-5Y cells [2]; [3]) [%]	inhibition at 1000 µM (SH-SY-5Y cells [2]; [4]) [%]	length of cytoprotection against Aβ toxicity (SH-SY-5Y cells [2])	escape latency, hidden platform (APP/PS1 mice; APP-PS1 mice, day 3 of training) [s]	escape latency, hidden platform (APP/PS1 mice; APP-PS1 mice, day 4 of training) [s]	time in the target quadrant, probe trial (APP/PS1 mice; APP-PS1 mice, i.p., 24 h after training) [%]	path length (APP/PS1 mice; APP-PS1 mice, i.p., last day of training) [m]	Path lengths vs saline-treated controls (APP/PS1 mice; APP-PS1 mice, oral)	escape latency, visible platform (APP/PS1 mice; APP/PS1 mice, i.p., end of four trials) [s]	time in the target quadrant, probe trial (APP/PS1 mice; APP/PS1 mice, oral) [%]	spatial memory development and escape latencies vs saline-treated group (APP/PS1 mice; APP/PS1 mice, oral 3×/week for 3 months, significant (p<0.05) on day 2 only)
N[C@@H](CCC(=O)N[C@@H](CS)C(=O)NCC(=O)O)C(=O)O [GSH, Glutathione]	reduction in ROS to the levels in control cells	neutralized effectively	fully protected the cells	12	0	significant only until day 3								
N[C@@H](CNC(=O)N[C@@H](CS)C(=O)NCC(=O)O)C(=O)O [Ψ-GSH, γ-Gla-Cys-Gly-OH]	reduction in ROS to the levels in control cells	neutralized effectively	fully protected the cells	4	0	five days	17.91 ± 4.65	14.64 ± 2.61	38.43±3.73	2.69±0.47	insignificantly different	6.75 ± 1.49	21.76±5.36	Trends toward higher spatial memory development and lower escape latencies
